Consider 25 molecules from ChEMBL document CHEMBL4428067, “Drug Discovery against Psoriasis: Identification of a New Potent FMS-like Tyrosine Kinase 3 (FLT3) Inhibitor, 1-(4-((1H-Pyrazolo[3,4-d]pyrimidin-4-yl)oxy)-3-fluorophenyl)-3-(5-(tert-butyl)isoxazol-3-yl)urea, That Showed Potent Activity in a Psoriatic Animal Model” (J Med Chem, 2016).

A word on the pIC50: it is the negative decadic logarithm of the IC50, by convention in mol/L.

pIC50: −log10 of the molar value.

The assay addresses T1, Receptor-type tyrosine-protein kinase FLT3 (Homo sapiens, UniProt P36888).
T1 sequence (P36888 whole entry): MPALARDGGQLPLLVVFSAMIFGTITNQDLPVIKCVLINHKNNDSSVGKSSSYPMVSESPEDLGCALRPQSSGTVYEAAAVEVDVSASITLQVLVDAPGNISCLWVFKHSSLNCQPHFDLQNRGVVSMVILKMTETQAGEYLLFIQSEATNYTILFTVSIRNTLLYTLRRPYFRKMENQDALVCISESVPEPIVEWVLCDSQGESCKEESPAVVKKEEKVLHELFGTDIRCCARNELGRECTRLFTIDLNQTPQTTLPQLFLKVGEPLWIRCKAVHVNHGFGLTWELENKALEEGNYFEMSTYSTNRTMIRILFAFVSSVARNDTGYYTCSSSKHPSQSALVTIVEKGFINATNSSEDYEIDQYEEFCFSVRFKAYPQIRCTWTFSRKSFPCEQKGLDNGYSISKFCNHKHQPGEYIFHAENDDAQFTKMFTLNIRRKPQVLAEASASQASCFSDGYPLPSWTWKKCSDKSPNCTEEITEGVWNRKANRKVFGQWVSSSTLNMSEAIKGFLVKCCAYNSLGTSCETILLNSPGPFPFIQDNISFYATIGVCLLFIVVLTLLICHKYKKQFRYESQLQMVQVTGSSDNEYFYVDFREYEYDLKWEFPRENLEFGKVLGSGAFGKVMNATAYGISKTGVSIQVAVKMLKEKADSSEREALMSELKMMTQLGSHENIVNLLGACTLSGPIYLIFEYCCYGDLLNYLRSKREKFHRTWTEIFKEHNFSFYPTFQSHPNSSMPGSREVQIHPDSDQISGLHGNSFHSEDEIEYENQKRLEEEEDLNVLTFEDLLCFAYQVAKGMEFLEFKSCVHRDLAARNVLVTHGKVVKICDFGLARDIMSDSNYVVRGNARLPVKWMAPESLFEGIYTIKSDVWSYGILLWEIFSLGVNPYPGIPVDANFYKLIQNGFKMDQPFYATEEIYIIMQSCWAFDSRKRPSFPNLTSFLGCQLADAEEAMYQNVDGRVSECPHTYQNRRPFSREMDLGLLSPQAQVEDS
Briefly: Inhibition of recombinant human N-terminal GST-tagged FLT3 (564 to end residues) expressed by baculovirus in Sf21 insect cells measured after 10 mins in presence of [gamma-33P]ATP by scintillation counter method.
Consider `CC(C)(C)c1cc(NC(=O)Nc2ccc(Oc3ncnc4[nH]ncc34)cc2)on1`, for which the negative logarithm of the IC50 (pIC50) is 8.10.
As for `Cn1ncc2c(Oc3ccc(NC(=O)Nc4cc(C(C)(C)C)on4)cc3)ncnc21`, the negative logarithm of the IC50 (pIC50) is 7.57.
`Cc1cc(NC(=O)Nc2cc(C(C)(C)C)on2)ccc1Oc1ncnc2[nH]ncc12`: the negative logarithm of the IC50 (pIC50) is 8.22.
`CC(C)(C)c1cc(NC(=O)Nc2ccc(Oc3ncnc4[nH]ncc34)c(F)c2)n(-c2ccccc2)n1`: the negative logarithm of the IC50 (pIC50) was 7.25.
Take `Cn1nc(C(C)(C)C)cc1NC(=O)Nc1ccc(Oc2ncnc3[nH]ncc23)c(F)c1`: the pIC50 is 7.18.
For `O=C(Nc1ccc(Oc2ncnc3[nH]ncc23)cc1)Nc1nc2ccccc2s1`, the pIC50 is 6.53.
To `CN(C)CCCn1ncc2c(Oc3ccc(NC(=O)Nc4cc(C(C)(C)C)on4)cc3)ncnc21` belongs 7.10.
The result for `Cn1nc(C(F)(F)F)cc1NC(=O)Nc1ccc(Oc2ncnc3[nH]ncc23)cc1` reads 7.42; that for `O=C(Nc1ccc(Oc2ncnc3[nH]ncc23)cc1)Nc1nc(-c2ccccc2)cs1`, 7.14; that for `Cn1nc(C(F)(F)F)cc1NC(=O)Nc1ccc(Oc2ncnc3[nH]ncc23)c(F)c1`, 7.44.
Regarding `CC(C)(C)c1cc(NC(=O)Nc2ccc(Oc3ncnc4[nH]ncc34)c(Cl)c2)no1`, the negative-log IC50 (pIC50) is 8.70.
`CC(C)(C)c1cc(NC(=O)Nc2ccc(Oc3ncnc4c3cnn4CCN3CCOCC3)cc2)no1`: the negative logarithm of the IC50 (pIC50) is 6.35.
As to `Cc1cc(Oc2ncnc3[nH]ncc23)ccc1NC(=O)Nc1cc(C(C)(C)C)on1`, the pIC50 was 6.18.
Consider `CC(C)(C)c1cc(NC(=O)Nc2ccc(Oc3ncnc4[nH]ncc34)cc2)n(-c2ccccc2)n1`, for which the pIC50 is 7.30.
In the case of `CC(C)(C)c1cc(NC(=O)Nc2ccc(Oc3ncnc4[nH]ncc34)cc2F)no1`, the negative logarithm of the IC50 (pIC50) was 8.22.
As to `CC(C)(C)c1cc(NC(=O)Nc2ccc(Oc3ncnc4[nH]ncc34)c(F)c2)n(C2CCCC2)n1`, the negative-log IC50 (pIC50) was 7.28.
For the molecule `CC(C)(C)c1cc(NC(=O)Nc2ccc(Oc3ncnc4[nH]ncc34)cc2)n(C(=O)O)n1`, the negative logarithm of the IC50 (pIC50) is 8.00.
`CC(C)c1cc(NC(=O)Nc2ccc(Oc3ncnc4[nH]ncc34)cc2)n(C)n1`: the pIC50 was 7.09.
To `CC(C)(C)c1cc(NC(=O)Nc2ccc(Oc3ncnc4[nH]ncc34)cc2)n(C2CCCC2)n1` belongs 7.28.
The result for `CC(C)(C)c1csc(NC(=O)Nc2ccc(Oc3ncnc4[nH]ncc34)cc2)n1` reads 8.10.
As to `Cn1nc(C(C)(C)C)cc1NC(=O)Nc1ccc(Oc2ncnc3[nH]ncc23)cc1`, the negative logarithm of the IC50 (pIC50) is 7.21.
In the case of `CC(C)(C)c1cc(NC(=O)Nc2ccc(Oc3ncnc4[nH]ncc34)cc2)no1`, the negative-log IC50 (pIC50) was 7.96.
As for `CC(C)(C)c1cc(NC(=O)Nc2ccc(Oc3ncnc4[nH]ncc34)c(F)c2)n(-c2ccc(F)cc2)n1`, the pIC50 was 7.38.
Consider `O=C(Nc1ccc(Oc2ncnc3[nH]ncc23)cc1)Nc1cc(C(F)(F)F)on1`, for which the pIC50 was 7.55.
The result for `CC(C)n1ncc2c(Oc3ccc(NC(=O)Nc4cc(C(C)(C)C)on4)cc3)ncnc21` reads 6.66.
